Assays:
[1] = system: NZBxNZW F1 mouse SLE model; assay: anti-dsDNA autoantibody quantitation by ELISA in serum, NZBxNZW F1 mouse SLE model; type: in vivo
Procedure: (§1) Compound 1 besylate was tested in the NZBxNZW Fl mouse SLE model. Treatment efficacy of Compound 1 besylate in this model was compared with cyclophosphamide, and a vehicle control. Principal end measures were autoantibodies against double stranded DNA (dsDNA) and protein in the urine.
Female NZBxNZW FI mice were housed in filter-top Nalgene cages, maintained on a 12-hour light/12-hour dark cycle with a room temperature of 70° F.+/−4° F. Mice were allowed to acclimate to the laboratory environment for approximately 5-7 days to ascertain their continued good health. Irradiated laboratory rodent chow and autoclaved water were supplied ad libitum.
Eighty NZBxNZW F1 female mice ˜12 weeks in age were obtained from Jackson Laboratory and were acclimatized for one week. After the acclimatization period was complete, each mouse that was successfully acclimatized was ear tagged and body weight recorded.
An initial bleed was performed prior to treatment initiation and serum prepared from the blood sampled. Serum samples were stored at −80° C. Following treatment initiation, blood was collected once every two weeks during the in-life phase for subsequent serum preparation.
(§2) Treatment was administered when the mice reached ˜20 weeks of age as follows:
(§3) Proteinuria: Urine was tested once every two weeks when the animals reached ˜13 weeks of age. Urine analysis was preformed midweek at approximately the same time of the day. Weekly urine analysis commenced when the animals reached the age of ˜18 weeks. Proteinuria levels were evaluated using Albustix urine strips. Serum was collected via collection of blood from tail bleeds when animals reached 13 weeks in age, then prior to initiating the treatment and thereafter twice a month.
Results. Individual autoantibody development in NZBxNZW Fl mice over time is depicted in FIG. 1A. Serum samples were collected from vehicle treated mice at the times indicated and an anti-dsDNA quantitation by ELISA performed. During the course of measurement from 18 weeks of age to 36 weeks of age, six (6) out of ten (10) mice developed autoantibodies against dsDNA greater than 400 KU/ml during the course of disease development and eight out of ten developed dsDNA antibodies greater than 200 kU/ml.

[2] = system: NZBxNZW F1 mouse SLE model; assay: urine protein (proteinuria, Albustix strips) in NZBxNZW F1 mouse SLE model; type: in vivo
Procedure: as §1
Urine analysis was initiated when the animals reached 13-14 weeks of age. Initially urine analysis was performed once in two weeks. When the animals reached 18-19 weeks of age, weekly urine analysis for proteinuria levels was performed using Albustix® Reagent strips for Urinalysis (Bayer, Inc). Results were scored on a 0-4 scale using the following criteria:
When the mice reached 19 weeks of age, all animals were evaluated with respect to their proteinuria scores. Based on that evaluation, […] mice were selected and assigned to 6 groups of 10 mice each and one group of 5 mice. The mice were assigned such that the distributions of proteinuria scores among all groups were as uniform as possible.
as §2, §3

[3] = system: NZBxNZW F1 mice; conditions: literature; cited from earlier work
[4] = system: B6.sle1 mouse SLE model; conditions: literature (Hutcheson et al.); reduced anti histone, anti ssDNA, kidney lymphocytes and renal damage; cited from earlier work

## C=CC(=O)Nc1cccc(Nc2nc(Nc3ccc(OCCOC)cc3)ncc2F)c1 [Compound 1 besylate, N-(3-(5-fluoro-2-(4-(2-methoxyethoxy)phenylamino)pyrimidin-4-ylamino)phenyl)acrylamide besylate]
[1]; 50 mg/kg BID PO for 12 weeks, vehicle: six (6) of ten (10)
  number of treated mice that developed dsDNA antibodies over 400 kU/ml: 2 of ten (10) treated mice
[1]; 50 mg/kg BID PO, of ten treated mice
  number of mice with nearly complete suppression of anti-dsDNA development: 6 mice
[1]; 50 mg/kg BID PO, weeks 29 through 33
  anti-dsDNA autoantibody development (FIG. 1C): reduced anti-dsDNA autoantibody development
[1]; 50 mg/kg BID PO, weeks 35 and 36, of ten treated mice
  number of mice with blunted anti-dsDNA responses at the end of the study: 2 mice
[2]; 50 mg/kg BID PO for 12 weeks
  protein levels measured in the urine relative to vehicle (FIG. 2): reduced protein levels
[2]; 100 mg/kg QD PO for 12 weeks
  protein levels measured in the urine relative to vehicle (FIG. 2): reduced protein levels
[2]; across dose groups
  urine protein, dose dependence: dose-associated trend of reduced urine protein

## O=P1(N(CCCl)CCCl)NCCCO1 (centres unmarked) [Cyclophophamide, Cyclophosphamide]
[3]
  effect on lupus nephritis / SLE in NZBxNZW F1 mice: inhibit lupus nephritis

## C=CC(=O)N1CCC[C@@H](n2nc(-c3ccc(Oc4ccccc4)cc3)c3c(N)ncnc32)C1 [PCI 32765/Ibrutinib]
[4]
  efficacy in B6.sle1 mouse SLE model: efficacious

## N#CN1CCCC(n2nc(-c3ccc(Oc4ccc(F)cc4F)cc3)c(C(N)=O)c2N)C1 (centres unmarked) [PF-06250112]
[3]
  effect on lupus nephritis / SLE in NZBxNZW F1 mice: efficacious

## CN1CCN(c2ccc(Nc3cc(-c4cccc(-n5ccc6cc(C7CC7)cc(F)c6c5=O)c4CO)cn(C)c3=O)nc2)CC1 [RN486]
[3]
  effect on lupus nephritis / SLE in NZBxNZW F1 mice: efficacious

Source: US20170173011A1, “METHODS OF TREATING A BRUTON'S TYROSINE KINASE DISEASE OR DISORDER” (Celgene Avilomics Research, Inc., priority 2014, published 2017)
